Measurements from article PMC12495443, “Developing inhibitors of the guanosine triphosphate hydrolysis accelerating activity of Regulator of G protein Signaling-14 [drawing 1]” (The Journal of Biological Chemistry, 2025).
Entries after “also recorded” stand apart in the source; their conditions may differ.

Columns and labels:
[1] = molecular target: T1, human RGS14 RGS-box (wild-type) (Homo sapiens, UniProt O43566); experiment: Transcreener GDP RGScreen fluorescence polarization assay of RGS14 RGS-box GAP activity on Gαi1(DM); type: biochemical
T1 construct: human RGS14 RGS-box (aa 46–195 of UniProt O43566); host or cells: E. coli
T1 sequence (O43566 46-195): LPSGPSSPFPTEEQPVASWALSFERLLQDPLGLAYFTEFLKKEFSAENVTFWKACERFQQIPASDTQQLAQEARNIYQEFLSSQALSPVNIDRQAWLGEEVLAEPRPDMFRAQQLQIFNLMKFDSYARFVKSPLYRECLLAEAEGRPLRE
In short: (§1)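 Steady-state GTP hydrolysis by rate-altered double point-mutant Gαi1 was read by Transcreener GDP fluorescence polarization, with GTP conversion kept below 10% of maximum input. The E. coli-expressed, N-terminal His6-tagged wild-type RGS-boxes were RGS12 aa 695–843 and RGS14 aa 46–195.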

[2] = molecular target: T2, human RGS12 RGS-box (wild-type) (Homo sapiens, UniProt O14924); experiment: Transcreener GDP RGScreen fluorescence polarization assay of RGS12 RGS-box GAP activity on Gαi1(DM); type: biochemical; conditions: wild-type RGS12 RGS-box GAP activity, Gαi1(DM), read-out: RGS12 pIC50 (converted)
T2 construct: human RGS12 RGS-box (aa 695–843 of UniProt O14924); host or cells: E. coli
T2 sequence (O14924 695-843): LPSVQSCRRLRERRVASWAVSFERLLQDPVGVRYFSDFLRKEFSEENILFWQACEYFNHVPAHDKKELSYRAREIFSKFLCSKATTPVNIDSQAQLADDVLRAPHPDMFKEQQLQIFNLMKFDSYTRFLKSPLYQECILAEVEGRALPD
In short: as §1

THP-1 cell line = experiment: Cytotoxicity assays (CytoTox-Glo, CytoTox 96); type: cell-based; conditions: THP-1 cells, overnight, CytoTox-Glo and CytoTox 96
Description: To evaluate cellular toxicity of active compounds, we employed the immortalized human monocytic THP1-Dual cell line (InvivoGen) in two orthogonal cytotoxicity assays: ATP-dependent luminescence (CytoTox-Glo) and colorimetric lactate dehydrogenase (LDH) release (CytoTox 96). For each assay, compounds were serially diluted 2-fold starting at 250 μM and added to 96-well flat-bottom tissue culture plates (Thermo Scientific Nunc, Cat# 165306). THP1-Dual cells were then seeded at 20,000 to 30,000 cells per well in 100 μl RPMI 1640 media supplemented with 10% fetal bovine serum (Gibco). Plates were gently mixed and incubated overnight at 37 °C in a humidified 5% CO2 incubator. For the CytoTox-Glo assay (Promega, Cat# G9291), 50 μl of assay reagent was added to each well. Plates were mixed briefly, sealed, and incubated at room temperature for 15 min before reading luminescence on a TECAN Infinite M1000 Pro plate reader to quantify dead-cell signal. Subsequently, 50 μl of a digitonin-containing lysis solution was added to each well, followed by a second luminescence read after 15 min to assess total cell content. Percent cytotoxicity was calculated per manufacturer instructions. For the CytoTox 96 Non-Radioactive Cytotoxicity Assay (Promega, Cat# G1780), after overnight compound treatment, LDH release into the culture medium was measured by adding the provided substrate mix. Absorbance was read at 490 or 492 nm within 1 h of adding the stop solution. Assay optimization and data normalization were conducted according to the manufacturer’s technical manual.

What does the source list for `COc1ccc(OCc2nnc3n2N=C(c2ccc(OC)c(OC)c2)CS3)cc1` [Z55660043, 6-(3,4-dimethoxyphenyl)-3-[(4-methoxy-phenoxy)methyl]-5H-[1,2,4]triazolo[3,4-b][1,3,4]thiadiazine]?
Ratio (RGS14 pIC50 / RGS12 pIC50) ([1]; values > 1.0 reflect RGS14 selectivity): 0.95; IC50 ([1]; wild-type RGS14 RGS-box GAP activity, Gαi1(DM), Transcreener GDP RGScreen, read-out: RGS14 pIC50 (converted)): 2290 nM; IC50 [2]: 1200 nM; cytotoxicity (THP-1 cell line): without measurable cytotoxicity; also recorded: no overt cytotoxicity
